Measured values taken from ChEMBL document CHEMBL1201862, “PubChem BioAssay data set” (2004).
Activity calls are given as the source filed them. Rule as the data show it, for most assays here: actives have a measured EC50 and inactives only a lower limit.

Experiments:
[1] = viability of uninfected HEp-2 cells – cell-based, HTS, cytotoxicity control for RSV inhibitor project, dose response (AID 2410); format: functional; conditions: human respiratory syncytial virus
cells [2] = format: functional, cell-based
cells [3] = format: functional, cell-based; remark: listed apart in the source
[4] = biological target: Luciferin 4-monooxygenase (Photinus pyralis, UniProt P08659); experiment: inhibition of purified Photinus pyralis luciferase – biochemical, luminescence, dose response (AID 1891)
[5] = Luminescence Cell-Based Dose Confirmation HTS to Identify Inhibitors of Platelet Dense Granule Release. [Related pubchem assays: 1663 (Primary HTS), 1678 (Summary of Project)]; format: functional
[6] = NIH3T3 cell viability loss – ATP luminescence, mouse fibroblasts, counter-screen, dose response (AID 2010); format: functional, cell-based;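 also: cells exposed to compound for about 90 hours before reading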
[7] = Trypanosoma cruzi growth suppression in host cells – NIH3T3 host cells, beta-gal luminescence, confirmation (AID 2044); format: functional, cell-based;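 also: intracellular parasites grown in NIH/3T3 mouse fibroblasts as host cells; luminescent beta-galactosidase reporter signal from transgenic T. cruzi replicating inside host cells; inhibitors lower the luminescence signal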
[8] = Luminescence Cell-Based Dose Retest to Confirm Inhibitors of Cancer Stem Cells. [Related pubchem assays (depositor defined):AID2717, AID2721]; format: functional; conditions: Homo sapiens
[9] = fluconazole-exposed Candida albicans growth modulators – fluorescence, retest, confirmation (AID 2467); format: functional, cell-based
[10] = NIH-3T3 fibroblast cytotoxicity, dose response, cytotoxicity control, cell-based, fluorescence, Alamar Blue, secondary assay (AID 2327); format: functional;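 also: NIH-3T3 mouse fibroblasts cultured with fluconazole at 8 µg/mL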
[11] = biological target: T1, Corticotropin-releasing factor receptor 2/Corticotropin-releasing factor-binding protein (Homo sapiens, UniProt P24387+Q13324); experiment: activators of CRF receptor 2 with binding protein – uHTS hits, confirmation (AID 602473); format: functional; conditions: read-out: EC50_Mean
T1 sequence (Q13324 whole entry): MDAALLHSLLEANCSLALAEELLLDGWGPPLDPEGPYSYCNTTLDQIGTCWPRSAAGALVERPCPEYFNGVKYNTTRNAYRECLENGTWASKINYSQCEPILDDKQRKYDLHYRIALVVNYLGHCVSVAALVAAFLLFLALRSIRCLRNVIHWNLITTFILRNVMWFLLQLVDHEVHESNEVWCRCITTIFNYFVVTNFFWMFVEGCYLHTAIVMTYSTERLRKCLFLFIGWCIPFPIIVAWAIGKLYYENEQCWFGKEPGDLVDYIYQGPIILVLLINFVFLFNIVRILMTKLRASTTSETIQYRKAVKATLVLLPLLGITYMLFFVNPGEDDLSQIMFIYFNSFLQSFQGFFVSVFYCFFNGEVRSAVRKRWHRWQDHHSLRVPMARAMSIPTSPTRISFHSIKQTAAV
T1 sequence (P24387 whole entry): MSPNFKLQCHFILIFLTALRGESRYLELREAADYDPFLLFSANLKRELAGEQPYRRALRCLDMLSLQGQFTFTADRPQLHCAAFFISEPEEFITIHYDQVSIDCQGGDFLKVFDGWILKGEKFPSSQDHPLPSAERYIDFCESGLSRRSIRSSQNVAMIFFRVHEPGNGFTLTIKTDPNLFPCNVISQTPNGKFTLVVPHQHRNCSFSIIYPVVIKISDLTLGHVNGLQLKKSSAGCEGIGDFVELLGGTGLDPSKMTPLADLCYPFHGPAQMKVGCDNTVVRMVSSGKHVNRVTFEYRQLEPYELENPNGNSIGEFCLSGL

INS1 = experiment: INS-1E survival protection against cytokine death – cell-based, luminescence, retest, dose response (AID 449756); format: functional; conditions: Rattus norvegicus;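 also: cell death triggered by IL-1 beta plus TNF-alpha plus IFN-gamma mixture; protective hits raise ATP signal compared with cytokine alone wells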
Protein RecA = biological target: T2, Protein RecA (Mycobacterium tuberculosis, UniProt P9WHJ3); experiment: Fluorescence Cell-Free Homogeneous Dose Retest to Identify Inhibitors of RecA-Intein Splicing Activity. [Related pubchem assays (depositor defined):AID2097, AID2223, AID489010, AID492950]; format: functional
T2 sequence (P9WHJ3 whole entry): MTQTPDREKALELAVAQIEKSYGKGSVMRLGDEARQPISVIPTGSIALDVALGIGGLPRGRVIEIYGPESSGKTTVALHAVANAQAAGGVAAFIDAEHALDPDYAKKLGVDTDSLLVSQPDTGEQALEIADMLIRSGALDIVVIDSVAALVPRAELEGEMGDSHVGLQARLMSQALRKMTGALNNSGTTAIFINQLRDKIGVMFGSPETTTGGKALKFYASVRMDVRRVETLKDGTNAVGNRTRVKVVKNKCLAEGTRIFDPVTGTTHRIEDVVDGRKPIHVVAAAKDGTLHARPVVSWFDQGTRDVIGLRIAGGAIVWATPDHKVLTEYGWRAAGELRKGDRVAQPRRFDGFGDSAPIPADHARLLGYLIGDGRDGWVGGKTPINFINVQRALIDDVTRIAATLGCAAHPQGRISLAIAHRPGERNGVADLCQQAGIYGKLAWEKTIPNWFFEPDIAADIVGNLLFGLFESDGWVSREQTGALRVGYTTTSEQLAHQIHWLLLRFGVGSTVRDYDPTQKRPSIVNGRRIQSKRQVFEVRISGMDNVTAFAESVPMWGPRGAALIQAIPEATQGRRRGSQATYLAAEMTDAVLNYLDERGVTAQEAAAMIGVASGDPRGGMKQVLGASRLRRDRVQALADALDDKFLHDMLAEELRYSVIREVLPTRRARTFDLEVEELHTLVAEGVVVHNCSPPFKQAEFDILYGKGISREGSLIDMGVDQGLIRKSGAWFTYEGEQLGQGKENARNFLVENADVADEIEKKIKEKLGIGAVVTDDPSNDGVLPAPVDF

[12] = biological target: T3, Replicative DNA helicase DnaB (Mycobacterium tuberculosis, UniProt P9WMR3); experiment: DnaB intein splicing inhibitors, dose response, biochemical, cell-free fluorescence (AID 449749); format: functional
T3 sequence (P9WMR3 whole entry): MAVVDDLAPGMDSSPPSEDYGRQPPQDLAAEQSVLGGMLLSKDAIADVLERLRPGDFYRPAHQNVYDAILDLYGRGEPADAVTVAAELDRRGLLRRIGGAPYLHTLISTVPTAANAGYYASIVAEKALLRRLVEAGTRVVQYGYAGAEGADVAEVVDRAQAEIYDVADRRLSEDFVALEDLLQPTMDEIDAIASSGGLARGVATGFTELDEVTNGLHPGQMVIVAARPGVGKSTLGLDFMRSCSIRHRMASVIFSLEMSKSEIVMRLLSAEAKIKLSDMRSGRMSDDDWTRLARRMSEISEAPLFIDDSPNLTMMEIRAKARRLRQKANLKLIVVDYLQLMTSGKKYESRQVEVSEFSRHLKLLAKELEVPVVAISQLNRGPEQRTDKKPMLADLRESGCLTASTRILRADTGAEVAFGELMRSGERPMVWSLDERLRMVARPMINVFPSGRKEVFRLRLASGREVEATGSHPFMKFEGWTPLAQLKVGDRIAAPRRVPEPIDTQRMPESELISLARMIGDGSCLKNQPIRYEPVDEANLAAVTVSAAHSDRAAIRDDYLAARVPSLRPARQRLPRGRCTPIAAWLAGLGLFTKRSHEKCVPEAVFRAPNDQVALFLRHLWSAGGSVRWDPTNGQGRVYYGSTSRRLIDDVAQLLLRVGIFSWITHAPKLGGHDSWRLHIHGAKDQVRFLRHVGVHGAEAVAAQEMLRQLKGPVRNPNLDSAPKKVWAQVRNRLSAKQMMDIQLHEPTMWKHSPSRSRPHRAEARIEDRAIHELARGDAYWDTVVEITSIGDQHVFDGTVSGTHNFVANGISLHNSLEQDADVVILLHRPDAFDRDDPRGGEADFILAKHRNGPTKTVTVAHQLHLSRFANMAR

[13] = non-specific 3'UTR reporter inhibition in Clone20-Shn3RL – cell-based, Renilla luciferase, cherry-picked, counter-screen for Shn3 inhibitor project, dose response (AID 624133); format: functional
[14] = reduction of Shn3 3'UTR-driven luciferase in osteoblasts – cell-based, Clone20 osteoblasts, firefly luciferase, cherry-picked, dose response (AID 624132); format: functional;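 also: firefly luciferase luminescence from reporter carrying the Shn3 3'UTR in osteoblasts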

Sequence of Luciferin 4-monooxygenase (P08659 whole entry): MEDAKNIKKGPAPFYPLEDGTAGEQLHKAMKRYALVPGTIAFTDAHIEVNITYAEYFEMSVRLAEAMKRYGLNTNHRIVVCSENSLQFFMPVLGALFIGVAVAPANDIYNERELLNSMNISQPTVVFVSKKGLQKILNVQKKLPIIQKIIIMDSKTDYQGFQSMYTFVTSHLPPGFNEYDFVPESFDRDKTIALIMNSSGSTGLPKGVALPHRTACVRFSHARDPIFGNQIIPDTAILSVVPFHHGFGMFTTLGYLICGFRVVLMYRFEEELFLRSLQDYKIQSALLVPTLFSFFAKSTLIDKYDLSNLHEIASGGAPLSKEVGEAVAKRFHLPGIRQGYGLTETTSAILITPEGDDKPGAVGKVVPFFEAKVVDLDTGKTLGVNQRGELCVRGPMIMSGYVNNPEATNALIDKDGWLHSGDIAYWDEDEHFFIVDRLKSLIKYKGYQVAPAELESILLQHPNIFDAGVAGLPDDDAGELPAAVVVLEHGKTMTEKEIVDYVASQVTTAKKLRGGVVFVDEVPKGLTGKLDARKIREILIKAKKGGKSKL

SMILES: c1ccc(Cn2nnc3c(N4CCC5(CC4)OCCO5)ncnc32)cc1
- CC50 [1]: 29.6 µM (active)

SMILES: COc1ccccc1NC(=O)C1CCN(C(=O)c2ccc(C(C)(C)C)cc2)CC1
- EC50 (cells [2]): > 350 µM (not active)
- EC50 (cells [3]): > 350 µM (not active)

SMILES: Cc1ccc2[nH]c(SCC(=O)Nc3ccc(C)c([N+](=O)[O-])c3)nc2c1
- CC50 [1]: 25.5 µM (active)

SMILES: COc1ccc(C2NC(c3ccc(OC)cc3)C([N+](=O)[O-])C(C)(C)C2[N+](=O)[O-])cc1 (stereo unspecified)
- EC50 [4]: > 112 µM (not active)
- EC50 [5]: > 112 µM (not active)

SMILES: CCc1nnc(NC(=O)CSc2nnc(Cc3cccn3C)n2CCOC)s1
- EC50 [4]: > 112 µM (not active)
- EC50 [5]: > 112 µM (not active)

SMILES: COCCCn1c(SCc2cccc(C(F)(F)F)c2)nc2cc(OC)c(OC)cc2c1=N
- EC50 [6]: > 60 µM (not active)
- EC50 [7]: 1.92 µM (active)
- AC50 [8]: 4.12 µM (active)

SMILES: O=C(Cn1cnc2c(cnn2-c2ccccc2)c1=O)N1CCOCC1
- CC50 [1]: 30.5 µM (active)

SMILES: O=C(NNC(=O)c1cc(Cl)ccc1O)c1ccc(NS(=O)(=O)c2cccs2)cc1
- EC50 [9]: > 38 µM (not active)
- EC50 [10]: > 160 µM (inactive)
- AC50 [8]: 9 µM (active)

SMILES: O=C(Nc1ccc(-n2cnnn2)cc1)c1cn2ccccc2n1
- EC50 [11]: > 53 µM (inactive)

SMILES: CNC(=S)Nc1ccc(C(N)=O)cc1
- EC50 [4]: > 112 µM (not active)

SMILES: Cc1cc(NC(=O)c2ccc3c(c2)OCO3)ccc1NC(=O)c1ccco1
- EC50 [4]: 4.06 µM (active)
- EC50 [5]: 12.7 µM (active)

SMILES: Cc1ccc(-c2ccc(/C=C/C(=O)c3ccccc3)o2)cc1
- CC50 [1]: 12.8 µM (active)

SMILES: CCCCC(=O)N1C/C=C\C(c2ccc(OC)cc2)N(Cc2ccc(F)cc2)C(=O)[C@H]1Cc1ccccc1 (stereo partly specified)
- EC50 [6]: > 60 µM (not active)
- AC50 (INS1): 8.17 µM (active)
- EC50 [7]: 1.99 µM (active)

SMILES: O=C(NCc1ccccn1)c1cc(-c2ccc(Cl)cc2)oc1C(F)(F)F
- AC50 (INS1): > 260 µM (inactive)

SMILES: COCCN(C(=O)CC(C)(C)C)c1nnc(-c2cccnc2)s1
- EC50 [4]: > 112 µM (not active)
- EC50 [5]: > 112 µM (not active)

SMILES: CCN(CCn1cccn1)Cc1c[nH]nc1-c1cccc2ccccc12
- EC50 [4]: > 112 µM (not active)
- EC50 [5]: > 112 µM (not active)

SMILES: Cc1ccc(-n2c(-c3cccs3)nc3ccccc3c2=O)cc1
- AC50 [8]: 2 µM (active)

SMILES: COc1cc(OC)cc(C(=O)NNC(=O)c2cc3ccccc3cc2O)c1
- EC50 [9]: > 38 µM (not active)
- EC50 [10]: > 160 µM (inactive)

SMILES: COc1ccccc1NC(=O)COC(=O)c1ccccc1C(=O)N1CCN(c2ccccc2)CC1
- CC50 [1]: 29.5 µM (active)

SMILES: Cc1cccc(C)c1NC(=O)CN(C)C(=O)Cn1c(=O)cnc2ccccc21
- EC50 [4]: > 112 µM (not active)
- EC50 [5]: > 112 µM (not active)

SMILES: N#CC1(NC(=O)COC(=O)c2cc(O)c3ccccc3c2O)CCCCC1
- EC50 (Protein RecA): 4.28 µM (active)
- AC50 [12]: 4.37 µM (active)
- AC50 [8]: 6.49 µM (active)

SMILES: COc1cccc(CNC(=O)N[C@@H](CC(C)C)C(=O)O)c1
- EC50 [4]: > 112 µM (not active)
- EC50 [5]: > 112 µM (not active)

SMILES: O=C(/C=C/c1ccc2c(c1)OCO2)Nc1nc(-c2ccccc2)cs1
- AC50 [8]: 0.943 µM (active)

SMILES: COc1ccc(NC(=O)Nc2nc3c(s2)CCCC3)cc1
- EC50 [9]: 8.48 µM (active)
- EC50 [10]: > 150 µM (inactive)

SMILES: Cc1ccc(S(=O)(=O)N2[C@@H](c3ccc(C(C)(C)C)cc3)C(C(=O)O)=CC[C@H]2c2cccc(Cl)c2)cc1
- AC50 [8]: 2.86 µM (active)

SMILES: COc1ccc(OC)c(CCNC(=O)CCc2nnc3ccc(N4CCCCC4)nn23)c1
- EC50 [4]: > 112 µM (not active)
- EC50 [5]: 52.5 µM (active)

SMILES: CN=C(S)Nc1ccc(C(N)=O)cc1
- EC50 [5]: > 112 µM (not active)

SMILES: CCc1cccc2c(-c3cs/c(=N\C)n3C)c[nH]c12
- CC50 [1]: 41.7 µM (active)

SMILES: COc1cccc(C(=O)NCc2ccc3c(c2)cc(C)n3C)c1
- EC50 [4]: > 112 µM (not active)
- EC50 [5]: 21.3 µM (active)

SMILES: N=C(Cc1ccc(Cl)cc1Cl)NOC(=O)c1ccccc1
- EC50 [9]: > 38 µM (not active)
- EC50 [10]: > 160 µM (inactive)

SMILES: CCOc1ccc(C(=O)Nc2ccc(Cc3ccncc3)cc2)cc1Br
- EC50 [9]: > 38 µM (not active)
- EC50 [10]: > 150 µM (inactive)
- EC50 [6]: > 60 µM (not active)
- EC50 [7]: 1.68 µM (active)

SMILES: COc1ccc(-c2cn3c(C)c(C(=O)N4CCCc5ccccc54)sc3n2)cc1
- CC50 [1]: 13.3 µM (active)

SMILES: O=C(Cc1ccc(Cl)cc1)Nc1ccc2c(c1)C(=O)NC2=O
- AC50 [8]: > 195 µM (inactive)

SMILES: COCCNC(=O)C(c1ccc(C)o1)N(CCOC)C(=O)Cn1nnc2ccccc21 (stereo unspecified)
- EC50 [9]: > 38 µM (not active)
- EC50 [10]: > 150 µM (inactive)

SMILES: Cc1cccc(NC(=O)CC2SC(=O)N(c3ccccc3)C2=O)c1 (stereo unspecified)
- EC50 [4]: > 112 µM (not active)
- EC50 [5]: > 112 µM (not active)

SMILES: Cc1ccc(-n2c(C)cc(/C(O)=C(/C([S-])=Nc3ccc(F)c(Cl)c3)[n+]3ccccc3)c2C)cc1
- EC50 [9]: > 38 µM (not active)
- EC50 [10]: > 160 µM (inactive)

SMILES: Cc1cc(CN2CCOCC2)c(O)c(C2(C)CCCCC2)c1
- AC50 [13]: 32.1 µM (active)
- AC50 [14]: 32.3 µM (active)

SMILES: COc1cccc(N2CCN(Cc3nc(O)c4c(-c5ccccc5)csc4n3)CC2)c1
- AC50 [8]: 1.08 µM (active)
